Assay results: patent publication US20030139391A1 (priority 2000, published 2003)

Test system: Patients diagnosed with Alzheimer's Disease
Assay: Adverse events and discontinuation in 5-month slow-titration trial
Assay type: in vivo, human
Experimental: Subjects in the Placebo group received 21 weeks (5 months) of placebo medication.
The safety of the drug was also monitored throughout the study. Blood samples for biochemistry and haematology and random urine sample for urinalysis were taken at each visit and at completion for all efficacy testing. Systolic and diastolic blood pressure were measured in the sitting position, pulse and vital signs were recorded at each visit.

COc1ccc2c3c1O[C@H]1C[C@@H](O)C=C[C@@]31CCN(C)C2 [GAL, galantamine]
Serious adverse event Cardiac failure: number (16 mg/day): 3
Serious adverse event Dehydration: % (16 mg/day): (1.1%)
Serious adverse event Dehydration: number (16 mg/day): 3
Serious adverse event Diarrhea: % (16 mg/day): (1.1%)
Serious adverse event Diarrhea: number (16 mg/day): 3
Serious adverse event Dyspnea: % (16 mg/day): (0.7%)
Serious adverse event Dyspnea: number (16 mg/day): 2
Serious adverse event Fall: % (16 mg/day): (0.4%)
Serious adverse event Fall: number (16 mg/day): 1
Serious adverse event Gi haemorrhage: % (16 mg/day): (0.0%)
Serious adverse event Gi haemorrhage: number (16 mg/day): 0
Serious adverse event Injury: % (16 mg/day): (0.4%)
Serious adverse event Injury: number (16 mg/day): 1
Serious adverse event Myocardial infarction: % (16 mg/day): (0.4%)
Serious adverse event Myocardial infarction: number (16 mg/day): 1
Serious adverse event Nausea: % (16 mg/day): (0.7%)
Serious adverse event Nausea: number (16 mg/day): 2
Serious adverse event Pneumonia: % (16 mg/day): (0.7%)
Serious adverse event Pneumonia: number (16 mg/day): 2
Serious adverse event Sepsis: % (16 mg/day): (0.0%)
Serious adverse event Sepsis: number (16 mg/day): 0
Serious adverse event Surgical intervention: % (16 mg/day): (1.1%)
Serious adverse event Surgical intervention: number (16 mg/day): 3
Serious adverse event Syncope: % (16 mg/day): (1.4%)
Serious adverse event Syncope: number (16 mg/day): 4
Serious adverse event Thrombophlebitis deep: % (16 mg/day): (0.0%)
Serious adverse event Thrombophlebitis deep: number (16 mg/day): 0
Serious adverse event Transient ischemic attack: % (16 mg/day): (0.7%)
Serious adverse event Transient ischemic attack: number (16 mg/day): 2
Serious adverse event Urinary tracq infection: % (16 mg/day): (0.7%)
Serious adverse event Urinary tracq infection: number (16 mg/day): 2
Serious adverse event Vomiting: % (16 mg/day): (0.7%)
Serious adverse event Vomiting: number (16 mg/day): 2
Syncope: % of patients (16 mg/day): (1.8%)
Syncope: number of patients (16 mg/day): 5
Total discontinued (DC): % (16 mg/day): 22%
Total discontinued (DC): N (16 mg/day): 60
Total patients with any SAE: % (16 mg/day): (10.0%)
Total patients with any SAE: number (16 mg/day): 28
Urinary tract infection: % of patients (16 mg/day): (8.2%)
Urinary tract infection: number of patients (16 mg/day): 23
Vomiting: % of patients (16 mg/day): (6.1%)
Vomiting: number of patients (16 mg/day): 17
Weight decrease: % of patients (16 mg/day): (5.4%)
Weight decrease: number of patients (16 mg/day): 15
Agitation: % of patients (24 mg/day): (8.1%)
Agitation: number of patients (24 mg/day): 22
Anorexia: % of patients (24 mg/day): (8.8%)
Anorexia: number of patients (24 mg/day): 24
Bradycardia: % of patients (24 mg/day): (2.9%)
Bradycardia: number of patients (24 mg/day): 8
Convulsions: % of patients (24 mg/day): (0.4%)
Convulsions: number of patients (24 mg/day): 1
DC due to adverse event: % (24 mg/day): 10%
DC due to adverse event: N (24 mg/day): 27
DC due to inefficacy: % (24 mg/day): 1%
DC due to inefficacy: N (24 mg/day): 2
Depression: % of patients (24 mg/day): (8.%)
Depression: number of patients (24 mg/day): 22
Diarrhea: % of patients (24 mg/day): (5.5%)
Diarrhea: number of patients (24 mg/day): 15
Dizziness: % of patients (24 mg/day): (7.0%)
Dizziness: number of patients (24 mg/day): 19
Dyspepsia: % of patients (24 mg/day): (5.5%)
Dyspepsia: number of patients (24 mg/day): 15
Edema peripheral: % of patients (24 mg/day): (2.6%)
Edema peripheral: number of patients (24 mg/day): 7
Fall: % of patients (24 mg/day): (4.4%)
Fall: number of patients (24 mg/day): 12
Fatigue: % of patients (24 mg/day): (4.8%)
Fatigue: number of patients (24 mg/day): 13
Headache: % of patients (24 mg/day): (4.8%)
Headache: number of patients (24 mg/day): 13
Injury: % of patients (24 mg/day): (5.9%)
Injury: number of patients (24 mg/day): 16
Muscle weakness: % of patients (24 mg/day): (0.4%)
Muscle weakness: number of patients (24 mg/day): 1
Nausea: % of patients (24 mg/day): (16.5%)
Nausea: number of patients (24 mg/day): 45
Rhinitis: % of patients (24 mg/day): (4.0%)
Rhinitis: number of patients (24 mg/day): 11
Serious adverse event Abdominal pain: % (24 mg/day): (0.0%)
Serious adverse event Abdominal pain: number (24 mg/day): 0
Serious adverse event Agitation: % (24 mg/day): (0.0%)
Serious adverse event Agitation: number (24 mg/day): 0
Serious adverse event Asthenia: % (24 mg/day): (0.4%)
Serious adverse event Asthenia: number (24 mg/day): 1
Serious adverse event Basal cell carcinoma: % (24 mg/day): (0.7%)
Serious adverse event Basal cell carcinoma: number (24 mg/day): 2
Serious adverse event Breast neoplasm female: % (24 mg/day): (0.0%)
Serious adverse event Breast neoplasm female: number (24 mg/day): 0
Serious adverse event Cardiac failure: % (24 mg/day): (0.0%)
Serious adverse event Cardiac failure: number (24 mg/day): 0
Serious adverse event Dehydration: % (24 mg/day): (0.0%)
Serious adverse event Dehydration: number (24 mg/day): 0
Serious adverse event Diarrhea: % (24 mg/day): (0.0%)
Serious adverse event Diarrhea: number (24 mg/day): 0
Serious adverse event Dyspnea: % (24 mg/day): (1.1%)
Serious adverse event Dyspnea: number (24 mg/day): 3.
Serious adverse event Fall: % (24 mg/day): (1.1%)
Serious adverse event Fall: number (24 mg/day): 3
Serious adverse event Gi haemorrhage: % (24 mg/day): (0.7%)
Serious adverse event Gi haemorrhage: number (24 mg/day): 2
Serious adverse event Injury: % (24 mg/day): (1.8%)
Serious adverse event Injury: number (24 mg/day): 5
Serious adverse event Myocardial infarction: % (24 mg/day): (0.4%)
Serious adverse event Myocardial infarction: number (24 mg/day): 1
Serious adverse event Nausea: % (24 mg/day): (0.0%)
Serious adverse event Nausea: number (24 mg/day): 0
Serious adverse event Pneumonia: % (24 mg/day): (1.1%)
Serious adverse event Pneumonia: number (24 mg/day): 3
Serious adverse event Sepsis: % (24 mg/day): (0.0%)
Serious adverse event Sepsis: number (24 mg/day): 0
Serious adverse event Surgical intervention: % (24 mg/day): (0.0%)
Serious adverse event Surgical intervention: number (24 mg/day): 0
Serious adverse event Syncope: % (24 mg/day): (1.8%)
Serious adverse event Syncope: number (24 mg/day): 5
Serious adverse event Thrombophlebitis deep: % (24 mg/day): (0.7%)
Serious adverse event Thrombophlebitis deep: number (24 mg/day): 2
Serious adverse event Transient ischemic attack: % (24 mg/day): (0.0%)
Serious adverse event Transient ischemic attack: number (24 mg/day): 0
Serious adverse event Urinary tracq infection: % (24 mg/day): (0.0%)
Serious adverse event Urinary tracq infection: number (24 mg/day): 0
Serious adverse event Vomiting: % (24 mg/day): (0.4%)
Serious adverse event Vomiting: number (24 mg/day): 1
Syncope: % of patients (24 mg/day): (3.3%)
Syncope: number of patients (24 mg/day): 9
Total discontinued (DC): % (24 mg/day): 22%
Total discontinued (DC): N (24 mg/day): 61
Total patients with any SAE: % (24 mg/day): (12.8%)
Total patients with any SAE: number (24 mg/day): 35
Urinary tract infection: % of patients (24 mg/day): (8.1%)
Urinary tract infection: number of patients (24 mg/day): 22
Vomiting: % of patients (24 mg/day): (9.9%)
Vomiting: number of patients (24 mg/day): 27
Weight decrease: % of patients (24 mg/day): (4.8%)
Weight decrease: number of patients (24 mg/day): 13
